Results on two compounds are retold here after patent publication US4165379A, “N-acetyl thienamycin” (Merck & Co., Inc., priority 1977, dated 1979).

Data set [1] has as its system Staphylococcus aureus ATCC 6538P. Put plainly: Disc-diffusion potency in units/mg relative to cephalothin. It counts as cell-based. On the procedure:
Plates containing Staphylococcus aureus ATCC 6538P are prepared as follows:
An overnight growth of the assay organism, Staphylococcus aureus ATCC 6538P, in nutrient broth plus 0.2% yeast extract is diluted with nutrient broth plus 0.2% yeast extract to a suspension having 55% transmittance at a wavelength of 660 nm. This suspension is added to Difco nutrient agar supplemented with 2.0 g./l. Difco yeast extract at 47° C. to 48° C., to make a composition containing 33.2 ml. of the suspension per liter of agar. Five ml. of this suspension is poured into petri dishes of 85 mm. diameter, and these plates are chilled and held at 4° C. until used (5 day maximum).
Samples of antibiotic to be assayed are diluted to an appropriate concentration in phosphate buffer at pH 7. Filter paper discs, 1/4 or 1/2 inch diameter, are dipped into the test solution and placed on the surface of the assay plate. The plates are incubated at 37° C. overnight, and the zone of inhibition is measured as mm. diameter. The zone of inhibition measured in mm. determines relative potencies.
The 48 l. concentrate is adjusted to pH 7.3 and adsorbed on 76 l. of Dowex 1×2, 50 to 100 mesh, chloride cycle resin at 7.6 l./min. The resin is eluted with deionized water at the same rate. Four fractions are collected, two of 48 l., one of 70 l. and one of 48 l. The fractions are adjusted to pH 7 as collected. Assays indicate that 68% of the starting bioactivity is in the 70 l. fraction. This fraction is concentrated to 18 l. at pH 7.0 and filtered using a 0.45 micron Millipore Filter.
A general note: In agar diffusion tests the substance spreads into inoculated agar from a disc or well.

A further data set deals with Staph aureus 2949. Nature of the data set: Efficacy studies (mice), intraperitoneal infection (Table 4). It counts as in vivo, CD-1 female mice infected with Staph aureus. The settings on record: Staphylococcus aureus, 2949, ip, 168 h; i.p. × 2, at time of infection and again 6 hours later; challenge 13 LD50; survival seventh day after infection. On the procedure:
(§1) In determining the in vivo activity, N-acetyl thienamycin is dissolved in and diluted with 0.01 M sodium phosphate, pH 7.0, to provide five fourfold concentrations of drug for testing. Female white Swiss mice, averaging about 21 g. in weight, were infected intraperitoneally with the test organism suspended in broth. The numbers of organisms injected were determined by standard plate-count techniques. At the time of infection, and again 6 hours later, certain of the mice were treated intraperitoneally with the antibiotic. Five mice were used for each concentration of drug tested. Controls of five mice for each of several dilutions of the infecting culture were included in each test in order to calculate the numbers of organisms that were lethal to 50% of the infected, untreated mice (LD50). This calculation was made using survival data of the seventh day after infection, at which time the amount of drug that should protect 50% of the infected mice (ED50) also was calculated.

Data set [2] deals with Vibrio percolans ATCC 8461. Nature of the data set: Disc-diffusion bioassay on ATCC 8461 plates. Type of data set: cell-based. The settings on record: crude sample (244 absorbance units at 298 nm); 1/2 inch disc, 0.1 ml of 1000 fold dilution; 25° C. On the procedure:
Assays of antibacterial activity are run according to the following disc-diffusion method using either Vibrio percolans ATCC 8461 or Staphylococcus aureus ATCC […] as tester organism. Plates containing Vibrio percolans ATCC 8461 are prepared as follows: A lyophilized culture of Vibrio percolans ATCC 8461 is suspended in 15 ml. of a sterilized medium containing 8 g./l. of Difco Nutrient Broth and 2 g./l. of yeast extract in distilled water (hereinafter designated NBYE). The culture is incubated overnight on a rotary shaker at 28° C. This culture is used to inoculate the surface of […] containing 1.5% agar in NBYE, and the inoculated […] incubated overnight at 28° C. and then stored in a refrigerator. The refrigerated […] prepared from a single lyophilized culture are used for up to four weeks from their preparation, as follows: A loop of inoculum from the slant is dispersed in 50 ml. of NBYE contained in a 250 ml. Erlenmeyer flask. […] The plates are incubated at 37° C. overnight, and the zone of inhibition is measured as mm. diameter. The zone of inhibition measured in mm. determines relative potencies. […] The solution contains 244 absorbance units at 298 nm and a 1/2 inch assay disc containing 0.1 ml. of a 1000 fold dilution, produces a 23 mm. zone of inhibition when incubated on ATCC 8461 plates at 25° C.

Data set [3] concerns gram-negative and gram-positive organisms. Put plainly: In vivo activity against infections in mice. The following applies: mouse. The method, then: as §1
Data set [4] can be described thus: pKa from the λ max dependence on pH. It counts as physicochemical. The settings on record: read-out: pKa for a COOH group.
The subject of the next data set is Klebsiella pneumoniae. Nature of the data set: Bauer-Kirby disc diffusion antibiotic spectrum (Table 3). It counts as cell-based. The following applies: read-out: diameter of the zone of inhibition; for zone of inhibition at 10.35 µg/disc: Klebsiella pneumoniae, 10.35 μg/disc, prepared by acetylating thienamycin; for zone of inhibition at 9.85 µg/disc: 9.85 μg/disc, prepared by fermenting Streptomyces cattleya. The text has this: (§2) The test employs the Bauer-Kirby disc diffusion method modified only in respect to the 2 mm. agar depth employed here.

The next data set concerns Proteus morganii. The description is as above. It counts as cell-based. The settings on record: MB2833, resistance P,C (penicillins, cephalosporins), read-out: diameter of the zone of inhibition.
Source text: as §2

The test system of the next data set is Bacillus subtilis. Described as above. It counts as cell-based. The settings on record: MB 964, ATCC 6633, read-out: diameter of the zone of inhibition.
Source text: as §2

In the next data set the test system is Pseudomonas aeruginosa. The data set is described as above. Type of data set: cell-based. The settings on record: read-out: diameter of the zone of inhibition; for zone of inhibition at 9.85 µg/disc: 9.85 μg/disc, prepared by fermenting Streptomyces cattleya; for zone of inhibition at 10.35 µg/disc: Pseudomonas aeruginosa, 10.35 μg/disc, prepared by acetylating thienamycin.
Source text: as §2

Another data set deals with Serratia. Described as above. Type of data set: cell-based. The following applies: MB2840, resistance P,C (penicillins, cephalosporins), read-out: diameter of the zone of inhibition.
Source text: as §2

The test system of the next data set is Escherichia coli. The description is as above. Type of data set: cell-based. The following applies: read-out: diameter of the zone of inhibition; for zone of inhibition at 10.35 µg/disc: Escherichia coli, 10.35 μg/disc, prepared by acetylating thienamycin; for zone of inhibition at 9.85 µg/disc: 9.85 μg/disc, prepared by fermenting Streptomyces cattleya.
Source text: as §2

A further data set deals with Staphylococcus aureus. Described as above. It counts as cell-based. The following applies: for diameter of the zone of inhibition: MB2314, resistance P (penicillins).
Source text: as §2

A further data set has as its system Enterobacter cloacae. The description is as above. It counts as cell-based. The following applies: read-out: diameter of the zone of inhibition; for zone of inhibition at 10.35 µg/disc: Enterobacter cloacae, 10.35 μg/disc, prepared by acetylating thienamycin; for zone of inhibition at 9.85 µg/disc: 9.85 μg/disc, prepared by fermenting Streptomyces cattleya.
Source text: as §2

For a further data set, the system named is Proteus mirabilis. The description is as above. The following applies: MB2830, resistance P,C (penicillins, cephalosporins), read-out: diameter of the zone of inhibition. It counts as cell-based.
Source text: as §2

Setting [5] is: MB2921, resistance P (penicillins).
Where [6] appears, read: MB2922, resistance P (penicillins).
[7] abbreviates: 9.85 μg/disc, prepared by fermenting Streptomyces cattleya.
[8] abbreviates: MB2824, resistance P,C (penicillins, cephalosporins).
Setting [9] is: MB2835, resistance P,C (penicillins, cephalosporins), zone hazy.
Where [10] appears, read: MB3286, resistance P,C (penicillins, cephalosporins).
Where [11] appears, read: MB2482, resistance P (penicillins).
The mark [12] stands for this setting: MB2964, resistance P,C (penicillins, cephalosporins).
[13] abbreviates: MB2646, resistance P,C (penicillins, cephalosporins).

The structures appear in SMILES notation. Read-outs that look alike come from different tables or passages of the source.

As to `C[C@@H](O)[C@H]1C(=O)N2C(C(=O)O)=C(SCCN)C[C@H]12` [thienamycin], the calculated potency is reported as 30,140 units/mg in [1] (23.6 mg. after second XAD-2 column) and 31,000 units/mg in data set [1] (after second XAD-2 column, 3.1 fold purification). Besides, in [1] (90 mg. after Bio-Gel P-2, fractions 75 through 80), the average potency was 10,000 units/mg. Besides, the potency in [1] (100.5 mg. after Bio-Gel P-2, fractions 75 through 79) was 8,320 units/mg; in data set [1] (freeze-dried product after Dowex 1×2), 310 units/mg.
As a reminder, the ED50 is the dose at which the effect has come halfway, by size or by number of responders. The low end stands for an effect at a small dose, the high end for a need for a large dose. In general, zone of inhibition refers to the extent of the growth-free halo in a diffusion test. As a reminder, the pKa is the pH at which an ionisable group is half protonated. Regarding `CC(=O)NCCSC1=C(C(=O)O)N2C(=O)C(C(C)O)C2C1` (centres unmarked) [N-Acetyl Thienamycin, N-acetyl thienamycin], it took a dose of 0.05 mg/kg to reach the 50% effect level in the data set on Staph aureus 2949 (ED50). In [2], this compound displayed a zone of inhibition of 23 mm. In addition, the in vivo activity result in data set [3] is “exhibits in vivo activity against gram-negative and gram-positive organisms”. Besides, the pKa in data set [4] was 3.3 ± 0.1. Also, the zone of inhibition at 10.35 µg/disc in the data set on Klebsiella pneumoniae (setting [5]) came to 28.5 mm; with Klebsiella pneumoniae (setting [6]), 30 mm; with Proteus morganii (Morganella morganii, 10.35 μg/disc, prepared by acetylating thienamycin), 25 mm; in the data set with Bacillus subtilis (Bacillus subtilis, ATCC6633, 10.35 μg/disc, prepared by acetylating thienamycin), 44.5 mm; in the data set on Pseudomonas aeruginosa (setting [8]), 24 mm; in the data set with Pseudomonas aeruginosa (setting [9]) it was 11 mm. In addition, the zone of inhibition at 10.35 µg/disc in the data set on Pseudomonas aeruginosa (setting [10]) was 0 mm; with Serratia (Serratia, 10.35 μg/disc, prepared by acetylating thienamycin), 27 mm; in the data set on Escherichia coli (setting [11]), 28 mm; in the data set with Escherichia coli (MB2884) it was 31.5 mm; in the data set on Escherichia coli (setting [12]) it was 29.5 mm; in the data set with Staphylococcus aureus (Staphylococcus aureus, MB2985, 10.35 μg/disc, prepared by acetylating thienamycin, read-out: diameter of the zone of inhibition), 37 mm. The zone of inhibition at 10.35 µg/disc was 27 mm with Enterobacter cloacae (setting [13]); 29 mm in the data set on Enterobacter cloacae (MB2647); 26 mm with Proteus mirabilis (Proteus mirabilis, 10.35 μg/disc, prepared by acetylating thienamycin). Besides, the zone of inhibition at 9.85 µg/disc in the data set on Klebsiella pneumoniae (setting [5]) was determined as 28 mm; with Klebsiella pneumoniae (setting [6]), 27 mm; in the data set on Proteus morganii (setting [7]), 25.5 mm; in the data set on Bacillus subtilis (setting [7]), 43 mm; in the data set on Pseudomonas aeruginosa (setting [8]), 23 mm; with Pseudomonas aeruginosa (setting [9]), 11 mm. In addition, the zone of inhibition at 9.85 µg/disc in the data set on Pseudomonas aeruginosa (setting [10]) stood at 0 mm; in the data set on Serratia (setting [7]), 27 mm; with Escherichia coli (setting [11]), 28 mm; in the data set on Escherichia coli (MB2884) it was 31.5 mm; in the data set on Escherichia coli (setting [12]), 28.5 mm; with Staphylococcus aureus (MB2985, 9.85 μg/disc, prepared by fermenting Streptomyces cattleya, read-out: diameter of the zone of inhibition) it was 37 mm. In addition, the zone of inhibition at 9.85 µg/disc in the data set with Enterobacter cloacae (setting [13]) was 26.5 mm; in the data set on Enterobacter cloacae (MB2647), 29 mm; in the data set with Proteus mirabilis (setting [7]), 25 mm. For the same compound, the “diameter of the zone of inhibition” value in the data set with Staphylococcus aureus (setting [7]) was determined as 37 millimeters; with Staphylococcus aureus (10.35 μg/disc, prepared by acetylating thienamycin) it was 37 millimeters.
